Laboratory results reported in ChEMBL document CHEMBL4765295, “Synthesis, pharmacological profile and 2D-QSAR studies of curcumin-amino acid conjugates as potential drug candidates” (Eur J Med Chem, 2020).
Several values for one entry are separate records, joined by “and”; a condition that tells them apart may be missing. Equal values may be shown once.

Tests used:
Rattus norvegicus [1] = assay: Anti-inflammatory activity in Wistar rat assessed as inhibition of carrageenan-induced paw edema at 10 mg/kg, ip pretreated for 1 hr followed by carrageenan challenge and measured after 1 hr relative to control (reference value: 0.00 +/-0.02 %); assay type: functional; conditions: time 2 hrs
Peritoneal macrophage [2] = assay: Antiinflammatory activity in […] mouse Peritoneal macrophages assessed as inhibition of LPS-induced NO production at 10 uM preincubated for 1 hr followed by LPS stimulation measured after 24 hrs by Griess method relative to control (reference value: 0.0 %); assay type: functional; design: scale not given: the % may be the effect or the level left; conditions: time 25 hrs
Rattus norvegicus [3] = assay: Anti-inflammatory activity in Wistar rat assessed as inhibition of carrageenan-induced paw edema at 10 mg/kg, ip pretreated for 1 hr followed by carrageenan challenge and measured after 4 hr relative to indomethacin; assay type: functional; conditions: time 5 hrs
Rattus norvegicus [4] = assay: Anti-inflammatory activity in Wistar rat assessed as inhibition of carrageenan-induced paw edema at 10 mg/kg, ip pretreated for 1 hr followed by carrageenan challenge and measured after 2 hr relative to control (reference value: 0.00 +/-0.03 %); assay type: functional; conditions: time 3 hrs
Rattus norvegicus [5] = assay: Antiinflammatory activity in Wistar rat model of carrageenan-induced paw edema assessed as reduction in thickness of paw edema at 10 mg/kg, ip pretreated for 1 hr followed by carrageenan challenge and measured after 2 hrs (reference value: 2.06 +/-0.09 mm); assay type: functional; conditions: time 3 hrs
Mus musculus [6] = assay: Analgesic activity in albino mouse assessed as forepaw licking/jumping latency time at 10 mg/kg, ip measured after 90 mins by hot plate test (reference value: 2.72 +/- 0.01 sec); assay type: functional; conditions: 1.5 h
Mus musculus [7] = assay: Analgesic activity in albino mouse assessed protection against acetic acid-induced abdominal writhing at 10 mg/kg, ip pretreated for 1 hr followed by acetic acid challenge and measured starting 5 mins post acetic acid challenge for 10 mins relative to indomethacin; assay type: functional; conditions: time 75 min, 1.25 h
Peritoneal macrophage [8] = assay: Antiinflammatory activity in […] mouse Peritoneal macrophages assessed as reduction in LPS-induced NO production by measuring reduction in stimulation index at 10 uM preincubated for 1 hr followed by LPS stimulation measured after 24 hrs by Griess method (reference value: 27.31 +/- 2.56 uM); assay type: functional; conditions: time 25 hrs
Rattus norvegicus [9] = assay: Antiinflammatory activity in Wistar rat model of carrageenan-induced paw edema assessed as reduction in thickness of paw edema at 10 mg/kg, ip pretreated for 1 hr followed by carrageenan challenge and measured after 4 hrs (reference value: 1.40 +/-0.10 mm); assay type: functional; conditions: time 5 hrs
Mus musculus [10] = assay: Analgesic activity in albino mouse assessed as protection at 10 mg/kg, ip measured after 120 mins by hot plate test (reference value: 0 %); assay type: functional; conditions: 2 h
Streptococcus pyogenes = assay: Antibacterial activity against Streptococcus pyogenes ATCC 19615 incubated for 18 hrs by agar dilution method; assay type: functional
Rattus norvegicus [11] = assay: Anti-inflammatory activity in Wistar rat assessed as inhibition of carrageenan-induced paw edema at 10 mg/kg, ip pretreated for 1 hr followed by carrageenan challenge and measured after 4 hr relative to control (reference value: 0.00 +/-0.4 %); assay type: functional; conditions: time 5 hrs
Rattus norvegicus [12] = assay: Antiinflammatory activity in Wistar rat model of carrageenan-induced paw edema assessed as reduction in thickness of paw edema at 10 mg/kg, ip pretreated for 1 hr followed by carrageenan challenge and measured after 1 hr (reference value: 2.41 +/-0.05 mm); assay type: functional; conditions: time 1 hr after carrageenan
Rattus norvegicus [13] = assay: Antiinflammatory activity in Wistar rat model of carrageenan-induced paw edema assessed as reduction in thickness of paw edema at 10 mg/kg, ip pretreated for 1 hr followed by carrageenan challenge and measured after 3 hrs (reference value: 1.79 +/-0.07 mm); assay type: functional; conditions: time 4 hrs
Rattus norvegicus [14] = assay: Anti-inflammatory activity in Wistar rat assessed as inhibition of carrageenan-induced paw edema at 10 mg/kg, ip pretreated for 1 hr followed by carrageenan challenge and measured after 24 hr relative to control (reference value: 0.00 +/-0.3 %); assay type: functional; conditions: time 25 hrs
[15] = Ulcerogenic activity in fasted albino mouse assessed as ulcer index in gastric mucosa at 10 mg/kg, po for 3 days (reference value: 0); assay type: toxicity, organism-based; conditions: in vivo, 72 h, time 3 day
[16] = Ulcerogenic activity in fasted albino mouse assessed as average number of ulcers in gastric mucosa at 10 mg/kg, po for 3 days (reference value: 0); assay type: toxicity, organism-based; conditions: in vivo, 72 h, time 3 day
Mus musculus [17] = assay: Analgesic activity in albino mouse assessed as forepaw licking/jumping latency time at 10 mg/kg, ip measured after 60 mins by hot plate test (reference value: 3.42 +/- 0.03 sec); assay type: functional; conditions: 1 h
[18] = Ulcerogenic activity in fasted albino mouse assessed as incidence of gastric ulceration at 10 mg/kg, po for 3 days (reference value: 0 %); assay type: toxicity, organism-based; conditions: in vivo, 72 h, time 3 day
Splenocyte [19] = assay: Immunomodulatory activity in Swiss albino mouse splenocytes assessed as cell viability at 10 uM by measuring inhibition of stimulation index incubated for 72 hrs in presence of mitogenic stimulus phytohaemagglutinin by MTT assay relative to indomethacin; assay type: functional; conditions: read-out: Activity
Mus musculus [20] = assay: Analgesic activity in albino mouse assessed as forepaw licking/jumping latency time at 10 mg/kg, ip measured after 120 mins by hot plate test (reference value: 2.62 +/- 0.06 sec); assay type: functional; conditions: 2 h
Mus musculus [21] = assay: Analgesic activity in albino mouse assessed as protection at 10 mg/kg, ip measured after 60 mins by hot plate test (reference value: 0 %); assay type: functional; conditions: 1 h
Rattus norvegicus [22] = assay: Antiinflammatory activity in Wistar rat model of carrageenan-induced paw edema assessed as reduction in thickness of paw edema at 10 mg/kg, ip pretreated for 1 hr followed by carrageenan challenge and measured after 24 hrs (reference value: 0.83 +/-0.08 mm); assay type: functional; conditions: time 25 hrs
Candida albicans = assay: Antifungal activity against Candida albicans incubated for 18 to 24 hrs by CLSI method; assay type: functional; conditions: time 18-24 hrs
Mus musculus [23] = assay: Analgesic activity in albino mouse assessed as protection at 10 mg/kg, ip measured after 90 mins by hot plate test (reference value: 0 %); assay type: functional; conditions: 1.5 h
Mus musculus [24] = assay: Analgesic activity in albino mouse assessed as forepaw licking/jumping latency time at 10 mg/kg, ip measured after 30 mins by hot plate test (reference value: 5.02 +/- 0.09 sec); assay type: functional; conditions: 0.5 h
Mus musculus [25] = assay: Analgesic activity in albino mouse assessed as protection at 10 mg/kg, ip measured after 30 mins by hot plate test (reference value: 0 %); assay type: functional; conditions: 0.5 h
Staphylococcus aureus = assay: Antibacterial activity against Staphylococcus aureus ATCC 25923 incubated for 18 hrs by agar dilution method; assay type: functional
[26] = Toxicity in albino mouse assessed as induction of toxic symptoms at 50 to 100 mg/kg, ip measured after 24 hrs; assay type: organism-based; conditions: in vivo, dose 50-100 mg/kg
Splenocyte [27] = assay: Immunomodulatory activity in Swiss albino mouse splenocytes assessed as cell viability at 10 uM by measuring stimulation index incubated for 72 hrs in presence of mitogenic stimulus phytohaemagglutinin by MTT assay (reference value: 1.00 +/- 0.24); assay type: functional
Rattus norvegicus [28] = assay: Anti-inflammatory activity in Wistar rat assessed as inhibition of carrageenan-induced paw edema at 10 mg/kg, ip pretreated for 1 hr followed by carrageenan challenge and measured after 3 hr relative to control (reference value: 0.00 +/-0.1 %); assay type: functional; conditions: time 4 hrs
Salmonella typhimurium = assay: Antibacterial activity against Salmonella typhimurium ATCC 19430 incubated for 18 hrs by agar dilution assay; assay type: functional, Salmonella enterica subsp. enterica serovar Typhimurium; conditions: Salmonella enterica
[29] = Ulcerogenic activity in fasted albino mouse assessed as average severity of ulcers in gastric mucosa at 10 mg/kg, po for 3 days (reference value: 0); assay type: toxicity, organism-based; conditions: in vivo, 72 h, time 3 day
Mus musculus [30] = assay: Analgesic activity in albino mouse assessed as protection at 10 mg/kg, ip measured after 120 mins by hot plate test relative to indomethacin; assay type: functional; conditions: 2 h
Pseudomonas aeruginosa = assay: Antibacterial activity against Pseudomonas aeruginosa ATCC 27853 incubated for 18 hrs by agar dilution assay; assay type: functional
Mus musculus [31] = assay: Analgesic activity in albino mouse assessed reduction in acetic acid-induced abdominal writhing by measuring writing reflex at 10 mg/kg, ip pretreated for 1 hr followed by acetic acid challenge and measured starting 5 mins post acetic acid challenge for 10 mins (reference value: 42.4 +/- 1.02); assay type: functional; conditions: time 75 min, 1.25 h
Mus musculus [32] = assay: Analgesic activity in albino mouse assessed protection against acetic acid-induced abdominal writhing at 10 mg/kg, ip pretreated for 1 hr followed by acetic acid challenge and measured starting 5 mins post acetic acid challenge for 10 mins relative to control (reference value: 0 %); assay type: functional; conditions: time 75 min, 1.25 h

Row | MIC (Streptococcus pyogenes) | SMILES | inhibition in vivo at 10 mg/kg (Rattus norvegicus [1]) | Activity (Peritoneal macrophage [2]) | inhibition in vivo at 10 mg/kg (Rattus norvegicus [3]) | inhibition in vivo at 10 mg/kg (Rattus norvegicus [4]) | Activity (Rattus norvegicus [5]) | Time (Mus musculus [6]) | Activity (Mus musculus [7]) | Activity (Peritoneal macrophage [8]) | Activity (Rattus norvegicus [9]) | Activity (Mus musculus [10]) | inhibition in vivo at 10 mg/kg (Rattus norvegicus [11]) | Activity (Rattus norvegicus [12]) | Activity (Rattus norvegicus [13]) | inhibition in vivo at 10 mg/kg (Rattus norvegicus [14]) | UI [15] | Activity [16] | Time (Mus musculus [17]) | Activity [18] | viability at 10 µM (Splenocyte [19]) | other results
1 | 1 µg/mL and 1.08 µM | COc1cc(/C=C/C(=O)/C=C(O)/C=C/c2ccc(OC(=O)CNC(=O)OCC3c4ccccc4-c4ccccc43)c(OC)c2)ccc1OC(=O)CNC(=O)OCC1c2ccccc2-c2ccccc21 | 40% | 31.43% | 91% | 62% | 0.78 mm | 3.82 s | 93.3% | 18.73 µM | 0.29 mm | 42% | 79% | 1.45 mm | 0.47 mm | 82% | 0 | 0 | 4.08 s | 0% | 68.8% | Time (Mus musculus [20]): 3.72 s; Activity (Mus musculus [21]): 19.3%; Activity (Rattus norvegicus [22]): 0.15 mm; MIC (Candida albicans): 2 µg/mL and 2.16 µM; Activity (Mus musculus [23]): 40.4%; Time (Mus musculus [24]): 5.96 s; Activity (Mus musculus [25]): 18.7%; MIC (Staphylococcus aureus): 1 µg/mL and 1.08 µM; Activity [26]: Non-Toxic; Activity_index (Splenocyte [27]): 1.76; inhibition in vivo at 10 mg/kg (Rattus norvegicus [28]): 74%; MIC (Salmonella typhimurium): 1 µg/mL and 1.08 µM; Activity [29]: 0; Activity (Mus musculus [30]): 100%; MIC (Pseudomonas aeruginosa): 1 µg/mL and 1.08 µM; Activity (Mus musculus [31]): 18; Activity (Mus musculus [32]): 57.5%
2 | 0.125 µg/mL and 0.139 µM | COc1cc(/C=C/C(=O)/C=C(O)/C=C/c2ccc(OC(=O)[C@H](CCSC)NC(=O)OCc3ccccc3)c(OC)c2)ccc1OC(=O)[C@H](CCSC)NC(=O)OCc1ccccc1 | 76% | 44.44% | 101% | 80% | 0.41 mm | 3.66 s | 9.2% | 15.17 µM | 0.17 mm | 21.4% | 88% | 0.58 mm | 0.25 mm | 94% | 3.99 | 0.33 | 3.94 s | 3.33% | 99.3% | Time (Mus musculus [20]): 3.18 s; Activity (Mus musculus [21]): 15.2%; Activity (Rattus norvegicus [22]): 0.05 mm; MIC (Candida albicans): 2 µg/mL and 2.23 µM; Activity (Mus musculus [23]): 34.6%; Time (Mus musculus [24]): 5.32 s; Activity (Mus musculus [25]): 6%; MIC (Staphylococcus aureus): 0.125 µg/mL and 0.139 µM; Activity [26]: Non-Toxic; Activity_index (Splenocyte [27]): 1.22; inhibition in vivo at 10 mg/kg (Rattus norvegicus [28]): 86%; MIC (Salmonella typhimurium): 0.125 µg/mL and 0.139 µM; Activity [29]: 0.33; Activity (Mus musculus [30]): 51%; MIC (Pseudomonas aeruginosa): 0.125 µg/mL and 0.139 µM; Activity (Mus musculus [31]): 16.5; Activity (Mus musculus [32]): 61.1%
